# “Also recorded” adds a separate entry of the source.
# Assays:
# [1] = system: C57Bl/6 murine carboxyfluorescein-labeled platelets; experiment: Recovery and survival of refrigerated platelets after infusion in congenic mice; type: in vivo; details: for Platelet 24-hour recovery in vivo / Platelet survival in vivo: refrigerated platelets stored at 0° C.; for Platelet 24-hour recovery in vivo: FIG. 6B; for Platelet survival in vivo: FIG. 6C
# Procedure: FIG. 6C-FIG. 6D. Platelet recovery at different time points. Donor platelets were stored at room temperature (squares) or pretreated with a mixed Rho GTPase inhibitors (50 μM NSC23766, 10 μM CASIN and/or 75 μM G04) or no drug (control). Data are presented as mean SD. *p<0.01 (Anova test with Bonferroni correction, between refrigerated with no inhibitor and refrigerated with triple inhibitor combination).
# FIG. 7 depicts effects of Rho GTPase inhibitor combinations on platelet survival upon transfusion. Platelet recovery at different time points is shown. Donor platelets were stored at room temp (squares) or pretreated with a mixed Rho GPase inhibitors (50 uM NSC23766, 10 uM CASIN and/or 75 uM G04) or no drug (Ctrl). Data are presented as mean±SD. *p<0.01 (Anova test with Bonferroni correction, between refrigerated with no inhibitor and refrigerated with triple inhibitor combination).
# A combination of CASIN (10 μM), G04 (75 μM) and/or NSC23766 were used in C57Bl/6 murine carboxyfluorescein-labeled platelets incubated at 0° C. or 5° C. for 3.5 hours. After re-warming, platelets were infused in 5 congenic mice (per group) and compared with control (room temperature stored) and refrigerated, untreated platelet group (FIG. 7). […] In a second experiment focused on the specific combinations with more activity to reverse the survival impairment associated with the use of Rho GTPase inhibitors, we analyzed the 24-hour recovery (%) and survival (hours) of platelets that had been stored in presence of several combinations of drugs (FIG. 6A).
# platelets [2] = experiment: Platelet actin lamellopodia structure / spreading, rhodamine-phalloidin staining; type: cell-based, human; details: for Fibrinogen-mediated platelet actin lamellopodia structure: NSC23766 50 μM, FIG. 4C
# Procedure: FIG. 4C. Fibrinogen-mediated platelet actin lamellopodia structure is blocked by NSC23 766 (50 μM). Rhodamine conjugated phalloidin-staining of platelets adhered to coated collagen surface.
# FIG. 5C. U46629 ([…]/Fibrinogen (3 μM)-mediated platelet actin lamellopodia structure is blocked by G04 (30 μM). Rhodamine conjugated phalloidin-staining of platelets adhered to coated collagen surface.
# Similarly, Applicant has identified an inhibitor of Rac, NSC23766 (30-34), with an ability to impair Rac1 activation by multiple activating signals which may be crucial in platelet signaling associated with GpIb/GpX (35). NSC23766 was discovered in a structure-based virtual screening of compounds that fit into a surface groove of Rac 1 known to be critical for guanine nucleotide exchange factor specification (34) (FIG. 4A).
# (§1) Finally, G04/Rhosin was also developed by us as a RhoA GTPase activation site inhibitor that transiently and specifically blocks RhoA activity and RhoA-mediated signaling functions (36, 37). […] Effect by collagen or thrombin is reversible (FIG. 5D, lower).
# platelets [3] = experiment: Collagen induced platelet aggregation; type: cell-based, human; details: for Reversibility of aggregation block upon a wash of the inhibitor treated platelets: up to 30 μM Casin, FIG. 3D lower panel
# Procedure: FIG. 3D. Collagen induced aggregation is blocked by 10 μM Casin (upper panel) and is reversible (up to 30 μM Casin) upon a wash of the inhibitor treated platelets (lower panel).
# FIG. 4D. Collagen induced aggregation is blocked by NSC23766 in a dose-dependent fashion.
# FIG. 4E. Inhibition of collagen induced platelet aggregation by NSC23766 (50 μM) is reversible upon a wash of the inhibitor treated platelets.
# (§2) FIG. 5D. Collagen induced aggregation is inhibited by G04 (upper panel). Similar to collagen, thrombin induced aggregation (data not shown) is blocked by G04 in a dose-dependent fashion (upper panel) and is reversible upon a wash of the inhibitor treated platelets (lower panel).
# Applicant has tested the ability of three chemical inhibitors, CASIN, NSC23766 and G04, targeting Cdc42, Rac1 and RhoA, respectively (FIG. 2), to inhibit the activity of the GTPases and the consequent cytoskeleton-dependent functions of human platelets. A rationally developed inhibitor of Cdc42 with activity on activation by guanine nucleotide exchange factors is CASIN (29, Nature Biotech under revision). CASIN was recently discovered by Zheng group as a small molecule that recognizes a pocket domain that specifically blocks the ability of GEF interaction with Cdc42 (FIG. 3A). CASIN is found to suppress of hematopoietic stem cell aging through its specific Cdc42 inhibitory activity (29). In platelets, it inhibits Cdc42 activation (FIG. 3B) and prevents collagen-induced platelet shape changes (FIG. 3C). […]
# as §1
# Cdc42 = molecular target: T1, Cdc42 (Homo sapiens, UniProt P60953); experiment: Cdc42 activation in platelets, GST-PAK pulldown assay; type: cell-based; details: Casin 10 μM, FIG. 3B
# T1 construct: endogenous in cells; host or cells: human platelets
# Procedure: FIG. 3B. Collagen-induced Cdc42 activation is inhibited by Casin (10 μM) in a GST-PAK pulldown assay.
# (§3) Applicant has tested the ability of three chemical inhibitors, CASIN, NSC23766 and G04, targeting Cdc42, Rac1 and RhoA, respectively (FIG. 2), to inhibit the activity of the GTPases and the consequent cytoskeleton-dependent functions of human platelets. A rationally developed inhibitor of Cdc42 with activity on activation by guanine nucleotide exchange factors is CASIN (29, Nature Biotech under revision). CASIN was recently discovered by Zheng group as a small molecule that recognizes a pocket domain that specifically blocks the ability of GEF interaction with Cdc42 (FIG. 3A). CASIN is found to suppress of hematopoietic stem cell aging through its specific Cdc42 inhibitory activity (29). In platelets, it inhibits Cdc42 activation (FIG. 3B) and prevents collagen-induced platelet shape changes (FIG. 3C).
# platelets [4] = experiment: Platelet actin filopodia structure / shape change, rhodamine-phalloidin staining; type: cell-based, human; details: Casin 10 μM, platelets adhered to coated collagen surface, FIG. 3C
# Procedure: FIG. 3C. Fibrinogen mediated platelet actin filopedia structure is blocked by Casin (10 μM). Rhodamine conjugated phalloidin-staining of platelets adhered to coated collagen surface.
# as §3
# hematopoietic stem cell = details: cited from earlier work
# RhoA [5] = molecular target: T2, RhoA (Homo sapiens, UniProt P61586); experiment: Collagen-induced RhoA activity in platelets, GST-Rhotekin pulldown assay; type: cell-based; parameters: endogenous in cells; host or cells: human platelets; details: G04 50 μM, FIG. 5B
# Procedure: FIG. 5B. Collagen-induced RhoA activity is inhibited by Go4 (50 μM) in a GST-Rhotekin pulldown assay.
# as §1
# Target sequence in this assay (P61586 whole entry): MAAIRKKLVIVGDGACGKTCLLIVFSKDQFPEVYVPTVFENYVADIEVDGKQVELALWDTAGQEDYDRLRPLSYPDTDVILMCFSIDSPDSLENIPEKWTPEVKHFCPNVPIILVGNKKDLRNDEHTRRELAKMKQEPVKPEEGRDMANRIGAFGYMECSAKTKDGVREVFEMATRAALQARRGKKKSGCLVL
# RhoA [6] = molecular target: T2, RhoA; details: cited from earlier work
# Target sequence in this assay (P61586 whole entry, species assumed): as the sequence (P61586 whole entry) above
# RhoA [7] = molecular target: T2, RhoA; details: binding to surface area sandwiching Trp58 of RhoA; cited from earlier work
# Target sequence in this assay (P61586 whole entry, species assumed): as the sequence (P61586 whole entry) above
# platelets [8] = experiment: Thrombin induced platelet aggregation; type: cell-based, human
# Text: as §2, §1
# T1 sequence (P60953 whole entry): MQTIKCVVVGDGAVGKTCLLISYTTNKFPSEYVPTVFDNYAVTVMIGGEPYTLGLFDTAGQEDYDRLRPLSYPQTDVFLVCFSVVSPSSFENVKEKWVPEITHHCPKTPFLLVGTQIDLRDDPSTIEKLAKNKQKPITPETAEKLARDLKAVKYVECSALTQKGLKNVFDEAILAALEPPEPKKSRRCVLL
smiles,measurement,setting,value
CCN(CC)CCCC(C)Nc1nc(C)cc(Nc2ccc3nc(C)cc(N)c3c2)n1 (racemic) [NSC23766],Reversal of the survival deficiency (storage lesion) induced by refrigerated storage,"[1]; platelets incubated at 0° C. or 5° C. for 3.5 hours, infused in congenic mice, 50 uM NSC23766, 10 uM CASIN and/or 75 uM G04, FIG. 7",did not result in significant reversal
same,Fibrinogen-mediated platelet actin lamellopodia structure,platelets [2],effectively block
same,Fibrinogen-mediated platelet actin lamellopodia structure,platelets [2]; listed as NSC23 766,blocked
same,Reversibility of inhibition of collagen induced platelet aggregation upon a wash,"platelets [3]; NSC23766 50 μM, FIG. 4E",reversible
same,Collagen induced aggregation,"platelets [3]; NSC23766, dose-dependent fashion, FIG. 4D",reversibly inhibits; also recorded: blocked
OCCNC1CCCc2c1[nH]c1ccc(-c3ccccc3)cc21 (stereo not drawn) [CASIN],Collagen-induced Cdc42 activation,Cdc42,inhibits
same,Collagen-induced Cdc42 activation,Cdc42; listed as Casin,inhibited
same,Platelet 24-hour recovery in vivo,[1],did not improve
same,Platelet survival in vivo,[1],did not improve
same,Platelet actin filopodia structure / collagen-induced platelet shape changes,platelets [4],prevents
same,Platelet actin filopodia structure / collagen-induced platelet shape changes,platelets [4]; listed as Casin,blocked
same,Hematopoietic stem cell aging,hematopoietic stem cell,suppress
same,Collagen induced aggregation,"platelets [3]; 10 μM Casin, FIG. 3D upper panel",prevention
same,Collagen induced aggregation,"platelets [3]; 10 μM Casin, FIG. 3D upper panel, listed as Casin",blocked
same,Reversibility of aggregation block upon a wash of the inhibitor treated platelets,platelets [3],can be reversed
same,Reversibility of aggregation block upon a wash of the inhibitor treated platelets,platelets [3]; listed as Casin,reversible
N[C@H](Cc1c[nH]c2ccccc12)C(=O)N/N=C/c1ccc2nccnc2c1 [G04],Collagen-induced RhoA activity,RhoA [5],specifically inhibits
same,Collagen-induced RhoA activity,RhoA [5]; listed as Go4,inhibited
same,GEF-catalyzed RhoA activation,RhoA [6],effectively inhibits
same,Platelet 24-hour recovery in vivo,[1],did not improve
same,Platelet survival in vivo,[1],did not improve
same,Kd,RhoA [7],submicromolar
same,U46629/Fibrinogen-mediated platelet actin lamellopodia structure (platelet spreading),"platelets [2]; G04 30 μM, U46629 10 mM, Fibrinogen 3 μM, FIG. 5C",inhibits; also recorded: blocked
same,Thrombin induced aggregation,"platelets [8]; G04, dose-dependent fashion, data not shown",blocked
same,Reversibility of block of thrombin induced aggregation upon a wash,"platelets [8]; G04, FIG. 5D lower panel",reversible
same,Collagen induced aggregation,"platelets [3]; G04, FIG. 5D upper panel",inhibited
same,Reversibility of effect on collagen induced aggregation,"platelets [3]; G04, wash of inhibitor treated platelets, FIG. 5D lower",reversible

# From patent US11172673B2, “Platelet storage methods and compositions for same” (Children's Hospital Medical Center, priority 2014, dated 2021)
